The record followed here is patent US20250344734A1, “UNSATURATED FATTY ACIDS AND THEIR USE TO MODIFY TASTE” (Firmenich Incorporated, priority 2022, published 2025).

Assay [1] has as its target T1, T2R01 (TAS2R01) (Homo sapiens, UniProt Q9NYW7).
T1 construct: expressed in transfected cells; host or cells: cells expressing a promiscuous G protein (e.g., G16g44)
T1 sequence (Q9NYW7 1-299): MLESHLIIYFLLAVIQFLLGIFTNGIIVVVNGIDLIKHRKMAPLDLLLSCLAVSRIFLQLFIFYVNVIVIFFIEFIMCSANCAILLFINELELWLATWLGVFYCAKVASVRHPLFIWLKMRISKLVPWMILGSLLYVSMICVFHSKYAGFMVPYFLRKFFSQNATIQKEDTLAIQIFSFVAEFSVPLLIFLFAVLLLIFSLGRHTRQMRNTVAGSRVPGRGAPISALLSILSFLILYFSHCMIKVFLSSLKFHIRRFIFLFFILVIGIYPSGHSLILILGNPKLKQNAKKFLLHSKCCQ
Nature of the assay: FLIPR calcium assay, block of bitter agonist response, T2R01. Type of assay: cell-based. Particulars: unsaturated fatty acid concentration of 200 µM, cells stimulated with known bitter agonist, read-out: percentage block of cellular response over baseline, 01. As to the method:
(§1) Cells expressing a promiscuous […] (e.g., G16g44) were transfected with vectors encoding 18 functional bitter receptor cDNAs, with one receptor per transfection. The cells were transfected directly in 384-well format high-density plates and incubated for 28 hours. Later, cells were loaded with the Ca-specific dye Fluo4-AM. After an incubation of 60 minutes, excess dye is washed off, and cells are stimulated with a known bitter agonist for each receptor and various unsaturated fatty acids. Changes in intracellular fluorescence are recorded using a FLIPR instrument. Bitter antagonists and corresponding receptors are identified based on percentage inhibition of agonist's activity on a given receptor.
The above protocol was carried out using 16 different unsaturated fatty acids. A particular T2R receptor was identified as being antagonized by a particular unsaturated fatty acid if it triggered a >25% block of agonist's cellular response at 200 μM concentration of unsaturated fatty acid. […] Table 2 indicates the sixteen (16) compounds tested by their compound number from Table 1 above. The 18 bitter taste receptors screened are the human bitter taste receptors we named. T2R01 (TAS2R01), T2R03 (TAS2R03), T2R04 (TAS2R04), T2R07 (TAS2R07), T2R08 (TAS2R08), T2R09 (TAS2R09), T2R10 (TAS2R10), T2R13 (TAS2R13), T2R14 (TAS2R14), T2R16 (TAS2R16), T2R54 (TAS2R39, T2R61 (TAS2R43), T2R63 (TA2R20), T2R64 (TAS2R31), T2R65 (TAS2R19), T2R67 (TAS2R50), T2R71 (TAS2R41), and T2R75 (TAS2R46). The corresponding IUPHAR nomenclature for each receptor is given in parenthesis. In Table 2, these receptors are identified by the last two digits. For example, T2R01 is indicated as 01. Table 2 reports the percentage block of cellular response over baseline at an unsaturated fatty acid concentration of 200 µM.

Assay [2] addresses T2, T2R09 (TAS2R09) (Homo sapiens, UniProt Q9NYW1).
T2 construct: expressed in transfected cells; host or cells: cells expressing a promiscuous G protein (e.g., G16g44)
T2 sequence (Q9NYW1 1-312): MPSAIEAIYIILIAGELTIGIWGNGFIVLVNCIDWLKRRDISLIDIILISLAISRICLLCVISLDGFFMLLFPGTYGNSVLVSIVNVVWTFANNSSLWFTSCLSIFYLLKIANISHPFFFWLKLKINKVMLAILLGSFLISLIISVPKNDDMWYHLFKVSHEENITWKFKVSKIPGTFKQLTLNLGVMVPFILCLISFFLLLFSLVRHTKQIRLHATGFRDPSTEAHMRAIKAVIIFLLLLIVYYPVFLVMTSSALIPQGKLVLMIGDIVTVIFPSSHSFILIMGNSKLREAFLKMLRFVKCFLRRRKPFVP
As to the kind of experiment: FLIPR calcium assay, block of bitter agonist response, T2R09. The assay is classed as cell-based. Conditions: unsaturated fatty acid concentration of 200 µM, cells stimulated with known bitter agonist. As to the method: as §1
The above protocol was carried out using 16 different unsaturated fatty acids. A particular T2R receptor was identified as being antagonized by a particular unsaturated fatty acid if it triggered a >25% block of agonist's cellular response at 200 μM concentration of unsaturated fatty acid. […] Table 2 indicates the sixteen (16) compounds tested by their compound number from Table 1 above. The 18 bitter taste receptors screened are the human bitter taste receptors we named. […]

Regarding `CC(C)=CCC/C(C)=C/C(=O)O` [Compound 129], in assay [1], the inhibition at 200 µM turned out to be 40%. Besides, the “percentage block of cellular response over baseline, 09” value in assay [2] is on record as 30%.
